Several values for one entry are separate records, joined by “and”; a condition that tells them apart may be missing. Equal values may be shown once. Toxic doses and inconclusive results are not listed.

These results are taken from PubChem BioAssay AID192 (DTP/NCI, 2004).

This test relates to BDF1 mice, B16 melanoma ip, median survival T/C. Nature of the test: NCI In Vivo Anticancer Drug Screen. Data for tumor model B16 Melanoma (intraperitoneal) in B6D2F1 (BDF1) mice. To be noted: endpoint: median survival time, higher = longer survival. The gist of the method:
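Tumor-bearing mice received test compound or vehicle. Survival or tumor size was then measured in both groups. The treated-group figure was divided by the control-group figure.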

Where [1] appears, read: dose: 3.12 mg/kg/injection, schedule: Q01DX009 (ip), vehicle: saline.
[2] abbreviates: dose: 6.25 mg/kg/injection, schedule: Q01DX009 (ip), vehicle: saline.
Setting [3] is: dose: 12.5 mg/kg/injection, schedule: Q01DX009 (ip), vehicle: saline.
The mark [4] stands for this setting: dose: 25.0 mg/kg/injection, schedule: Q01DX009 (ip), vehicle: saline.
[5] abbreviates: dose: 12.5 mg/kg/injection, schedule: Q01DX009 (ip), vehicle: saline with Tween-80.
Where [6] appears, read: dose: 25.0 mg/kg/injection, schedule: Q01DX009 (ip), vehicle: saline with Tween-80.
[7] abbreviates: dose: 50.0 mg/kg/injection, schedule: Q01DX009 (ip), vehicle: saline with Tween-80.
The mark [8] stands for this setting: dose: 100.0 mg/kg/injection, schedule: Q01DX009 (ip), vehicle: saline with Tween-80.
Setting [9] is: dose: 200.0 mg/kg/injection, schedule: Q01DX009 (ip), vehicle: saline with Tween-80.
The mark [10] stands for this setting: dose: 6.25 mg/kg/injection, schedule: Q01DX009 (ip), vehicle: saline with Tween-80.
[11] abbreviates: dose: 100.0 mg/kg/injection, schedule: Q01DX009 (ip), vehicle: Klucel (hydroxypropylcellulose) (HPC).
Setting [12] is: dose: 200.0 mg/kg/injection, schedule: Q01DX009 (ip), vehicle: Klucel (hydroxypropylcellulose) (HPC).
Setting [13] is: dose: 25.0 mg/kg/injection, schedule: Q01DX009 (ip), vehicle: Klucel (hydroxypropylcellulose) (HPC).
[14] abbreviates: dose: 50.0 mg/kg/injection, schedule: Q01DX009 (ip), vehicle: Klucel (hydroxypropylcellulose) (HPC).

Consider `CC(Cc1ccccc1)NCCn1cnc2c1c(=O)n(C)c(=O)n2C` (centres undefined), for which the T/C by setting is: under setting [1], 112 % of control; under setting [2], 115 % of control; under setting [3], 100 % of control; under setting [4], 109 % of control; (dose: 50.0 mg/kg/injection, schedule: Q01DX009 (ip), vehicle: saline) 115 % of control.
Turning to `O=C1NC(=O)/C(=C/C=C/c2ccccc2)S1`, the T/C under setting [5] is 99 % of control and 114 % of control; the T/C under setting [6] was 97 % of control and 115 % of control; the T/C under setting [7] was 99 % of control and 103 % of control; the T/C under setting [8] is 99 % of control and 108 % of control; the T/C under setting [9] is 114 % of control; the T/C (dose: 400.0 mg/kg/injection, schedule: Q01DX009 (ip), vehicle: saline with Tween-80) is 98 % of control.
Regarding `C(=NCCN1CCOCC1)=NC1CCCCC1`, the T/C runs as follows: (dose: 3.13 mg/kg/injection, schedule: Q01DX009 (ip), vehicle: saline with Tween-80) 108 % of control; under setting [10], 110 % of control; under setting [5], 114 % of control.
In the case of `O=C(NC(C(=O)O)c1ccccc1)OCc1ccccc1` (centres undefined), the T/C by setting is: under setting [7], 97 % of control; under setting [8], 98 % of control; under setting [9], 98 % of control.
Turning to `On1cnc(=S)c2[nH]cnc21`, the T/C reads like this: (dose: 100.0 mg/kg/injection, schedule: Q01DX009 (ip), vehicle: saline sonified) 106 % of control; (dose: 200.0 mg/kg/injection, schedule: Q01DX009 (ip), vehicle: saline sonified) 104 % of control; (dose: 400.0 mg/kg/injection, schedule: Q01DX009 (ip), vehicle: saline sonified) 90 % of control.
As to `COc1ccc2c(c1)C/C(=N\O)C2=O`, the T/C by setting is: under setting [6], 99 % of control; under setting [7], 114 % of control; under setting [8], 92 % of control.
Take `O=C(Nc1ccccc1)c1ccc(Cl)c([N+](=O)[O-])c1`: the T/C is 113 % of control under setting [6], 111 % of control under setting [7] and 106 % of control under setting [8].
For the compound `O=C(CCc1ccc(O)cc1)c1c(O)cc(O)cc1O`, the T/C is, setting by setting: (dose: 50.0 mg/kg/injection, schedule: Q01DX009 (ip), vehicle: saline + alcohol) 110 % of control; (dose: 100.0 mg/kg/injection, schedule: Q01DX009 (ip), vehicle: saline + alcohol) 102 % of control; (dose: 400.0 mg/kg/injection, schedule: Q01DX009 (ip), vehicle: saline + alcohol) 107 % of control.
For `CCC(C(N)=O)C1=CCCCC1` (centres undefined), the T/C by setting is: under setting [11], 105 % of control; under setting [12], 101 % of control.
Consider `CC(C)CC(NC(=O)OC(C)(C)C)C(=O)ON1C(=O)CCC1=O` (centres undefined), for which the T/C is 93 % of control under setting [10]; 93 % of control under setting [5]; 96 % of control under setting [6]; 90 % of control and 92 % of control under setting [7].
`Cc1cc(=O)n(C)c2ccccc12`: the T/C by setting is: (dose: 12.5 mg/kg/injection, schedule: Q01DX009 (ip), vehicle: Klucel (hydroxypropylcellulose) (HPC)) 90 % of control; under setting [13], 90 % of control; under setting [14], 90 % of control; (dose: 50.0 mg/kg/injection, schedule: Q04DX003 (ip), vehicle: Klucel (hydroxypropylcellulose) (HPC)) 107 % of control; under setting [11], 90 % of control; (dose: 100.0 mg/kg/injection, schedule: Q04DX003 (ip), vehicle: Klucel (hydroxypropylcellulose) (HPC)) 102 % of control. Where the note is “dose: 200.0 mg/kg/injection, schedule: Q04DX003 (ip), vehicle: Klucel (hydroxypropylcellulose) (HPC)”, the T/C was 102 % of control.
For the compound `CC(=O)OCC1OC(n2cnc3c(=S)nc(N)[nH]c32)C(OC(C)=O)C1OC(C)=O` (centres undefined), the T/C under setting [2] was 118 % of control, the T/C under setting [3] is 105 % of control and the T/C under setting [4] is 101 % of control.
Turning to `CC1(c2ccc(Cl)cc2)OC(=O)C(=Cc2ccc([N+](=O)[O-])s2)C(=O)O1` (centres undefined), the T/C runs as follows: under setting [10], 92 % of control; under setting [5], 87 % of control.
Regarding `Nc1ccccc1SC1CC(=O)N(c2ccc(I)cc2)C1=O` (centres undefined), the T/C is, setting by setting: under setting [5], 100 % of control; under setting [13], 108 % of control; under setting [14], 97 % of control; under setting [7], 88 % of control; under setting [11], 88 % of control and 100 % of control.
`O=C(Nc1cccc(C(F)(F)F)c1)Nc1nccs1`: the T/C is, setting by setting: under setting [13], 93 % of control; under setting [14], 95 % of control; under setting [11], 100 % of control; under setting [12], 101 % of control.
As for `CNC(=O)OCc1c(COC(=O)NC)c(C)n(-c2ccc(OC)cc2)c1C`, the T/C by setting is: (dose: 3.12 mg/kg/injection, schedule: Q01DX009 (ip), vehicle: Klucel (hydroxypropylcellulose) (HPC)) 113 % of control; (dose: 6.25 mg/kg/injection, schedule: Q01DX009 (ip), vehicle: Klucel (hydroxypropylcellulose) (HPC)) 111 % of control.
Take `COc1ccc(C(=O)Nc2ccccc2)cc1[N+](=O)[O-]`: the T/C by setting is: under setting [11], 89 % of control; under setting [12], 100 % of control; (dose: 400.0 mg/kg/injection, schedule: Q01DX009 (ip), vehicle: Klucel (hydroxypropylcellulose) (HPC)) 94 % of control.
As to `Cl[C](Cl)(Cl)[Hg][c]1ccccc1`, the T/C is, setting by setting: (dose: 0.19 mg/kg/injection, schedule: Q01DX009 (ip), vehicle: saline) 91 % of control; (dose: 0.38 mg/kg/injection, schedule: Q01DX009 (ip), vehicle: saline) 92 % of control; (dose: 1.5 mg/kg/injection, schedule: Q01DX009 (ip), vehicle: saline) 89 % of control.
With `C=CCN(CC=C)CCN1CCN(CCCN2c3ccccc3Sc3ccc(C(F)(F)F)cc32)CC1`, the T/C is, setting by setting: under setting [1], 100 % of control; under setting [2], 107 % of control; under setting [3], 97 % of control.
With `O.O.[NH-]C1CCCCC1[NH-].[Pt+2]` (centres undefined), the T/C is, setting by setting: (dose: 0.62 mg/kg/injection, schedule: Q01DX009 (ip), vehicle: dextrose) 91 % of control and 111 % of control; (dose: 1.25 mg/kg/injection, schedule: Q01DX009 (ip), vehicle: dextrose) 118 % of control; (dose: 1.25 mg/kg/injection, schedule: Q01DX009 (ip), vehicle: other) 120 % of control; (dose: 2.5 mg/kg/injection, schedule: Q01DX009 (ip), vehicle: dextrose) 124 % of control; (dose: 2.5 mg/kg/injection, schedule: Q01DX009 (ip), vehicle: other) 120 % of control; (dose: 10.0 mg/kg/injection, schedule: Q01DX009 (ip), vehicle: other) 155 % of control.
For the compound `COc1ccc([I+]c2ccc(OC)cc2)cc1`, the T/C reads like this: (dose: 0.75 mg/kg/injection, schedule: Q01DX009 (ip), vehicle: saline with Tween-80) 95 % of control; (dose: 1.5 mg/kg/injection, schedule: Q01DX009 (ip), vehicle: saline with Tween-80) 95 % of control; (dose: 3.0 mg/kg/injection, schedule: Q01DX009 (ip), vehicle: saline with Tween-80) 100 % of control.
In the case of `CC[C@H]1CN2CCc3cc(OC)c(OC)cc3[C@@H]2C[C@@H]1C[C@H]1NCCc2cc(OC)c(OC)cc21`, the T/C runs as follows: (dose: 0.87 mg/kg/injection, schedule: Q01DX009 (ip), vehicle: saline) 103 % of control and 104 % of control; (dose: 1.75 mg/kg/injection, schedule: Q01DX009 (ip), vehicle: saline) 100 % of control and 103 % of control; (dose: 3.5 mg/kg/injection, schedule: Q01DX009 (ip), vehicle: saline) 105 % of control and 111 % of control; (dose: 7.0 mg/kg/injection, schedule: Q01DX009 (ip), vehicle: saline) 116 % of control; (dose: 7.8 mg/kg/injection, schedule: Q04DX003 (ip), vehicle: saline) 108 % of control; (dose: 11.2 mg/kg/injection, schedule: Q04DX003 (ip), vehicle: saline) 98 % of control. Besides, the T/C is, setting by setting: (dose: 16.0 mg/kg/injection, schedule: Q04DX003 (ip), vehicle: saline) 107 % of control; (dose: 22.9 mg/kg/injection, schedule: Q04DX003 (ip), vehicle: saline) 104 % of control.
Turning to `C/C=C/CC(C/C=C/C)C1CC[N-]CC1.C/C=C/CC(C/C=C/C)C1CC[N-]CC1.[Cl][Pt+2]([Cl])([Cl])[Cl]`, the T/C (dose: 1.56 mg/kg/injection, schedule: Q01DX009 (ip), vehicle: other) is 97 % of control; the T/C (dose: 3.13 mg/kg/injection, schedule: Q01DX009 (ip), vehicle: other) is 97 % of control; the T/C (dose: 6.25 mg/kg/injection, schedule: Q01DX009 (ip), vehicle: other) is 100 % of control; the T/C (dose: 12.5 mg/kg/injection, schedule: Q01DX009 (ip), vehicle: other) is 97 % of control; the T/C (dose: 25.0 mg/kg/injection, schedule: Q01DX009 (ip), vehicle: other) was 96 % of control.
